Results as given in article PMC9250534, “Synthesis and direct assay of large macrocycle diversities by combinatorial late-stage modification at picomole scale” (Nature Communications, 2022).
Numbered stars: 1 amine (or outer) side, 2 acyl side, 3 side chain; on linkers, the order of the positions; unused ones are H or OH. Bridge positions count the residues as written; N and C are the ends. Square brackets hold non-standard residues; d marks the D form. Peptide text beside a SMILES is read from it. * marks the point of attachment. Pyrazinoyl(5-oxo-4H) = O=C(c1c[nH]c(=O)cn1)*; 1,2,3Thiadiazole5CO(4-Me) = Cc1nnsc1C(=O)*; Nicotinoyl(6-OMe) = COc1ccc(C(=O)*)cn1; 2Thenoyl(5-Cl) = O=C(c1ccc(Cl)s1)*; Phenoxyacetyl = O=C(COc1ccccc1)*; Cysteamide = C(CS[*:3])N[*:1]; X3 = O=C(Cc1c[nH]c2ccccc12)*; 3Amb = NCc1cccc(C(=O)O)c1; Isovaleryl = CC(C)CC(=O)*; 2Furoyl = O=C(c1ccco1)*; Mpa = O=C(O)CCS

The molecules below were run against T1, thrombin (Homo sapiens, UniProt P00734) (assay: Thrombin inhibition screen of crude macrocycle reactions (residual thrombin activity, fluorogenic substrate Z-Gly-Gly-Arg-AMC)). Settings: 10 µM macrocycle concentration; crude reactions, Library 1a-l; scaffold AA1-AA2-AA3 combined with 1-16 or '-'.
T1 construct: consists of two polypeptide chains of 36 (light chain) and 259 amino acid
Format: biochemical
In short: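 Each crude macrocycle (10 μM) was preincubated 10 min at room temperature with thrombin (2 nM final) in Tris-Cl pH 7.4 containing NaCl, MgCl2, CaCl2, 0.1% BSA, 0.01% Triton X-100 and 0.6% DMSO. Z-Gly-Gly-Arg-AMC (50 μM final) was then added. Inhibition came from fluorescence slopes relative to DMSO-only controls.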

Row | percent residual thrombin activity | SMILES
1 | 105.008% | C[C@H]1NC(=O)CCSSCCNC(=O)[C@H](CCCCN)NC(=O)CCNC1=O [a-B2-D1/-]
2 | 113.455% | C[C@H]1NC(=O)CCSSCCNC(=O)[C@@H]2CCCN2C(=O)[C@H](CCCCNC(=O)Cc2c[nH]c3ccccc23)NC1=O [a-D1-B1/12] ([Mpa][dA]K(X3)P-Cysteamide; disulfide 1-C)
3 | 109.871% | C[C@H]1NC(=O)CCSSCCNC(=O)[C@@H]2CCCN2C(=O)[C@H](CCCCNC(=O)c2ccc(Cl)s2)NC1=O [a-D1-B1/14] ([Mpa][dA]K(2Thenoyl(5-Cl))P-Cysteamide; disulfide 1-C)
4 | 113.28% | CC1NC(=O)CCSSCCNC(=O)C2CCCN2C(=O)C(CCCCNC(=O)c2ccco2)NC1=O (centres unmarked) [a-D1-B1/16] ([Mpa]AK(2Furoyl)P-Cysteamide; disulfide 1-C; configuration not given here)
5 | 107.784% | C[C@H]1NC(=O)CCSSCCNC(=O)[C@H]2CCCN(C2)C(=O)[C@H](CCCCNC(=O)c2ccccc2)NC1=O [a-D1-B4/1]
6 | 108.338% | C[C@H]1NC(=O)CCSSCCNC(=O)[C@H]2CCCN(C2)C(=O)[C@H](CCCCNC(=O)c2c[nH]c(=O)cn2)NC1=O [a-D1-B4/9]
7 | 104.737% | C[C@H]1NC(=O)CCSSCCNC(=O)c2cccc(c2)CNC(=O)[C@H](CCCCNC(=O)c2cnccn2)NC1=O [a-D1-B5/2]
8 | 99.075% | CC(C)CC(=O)NCCCC[C@@H]1NC(=O)[C@@H](C)NC(=O)CCSSCCNC(=O)c2cccc(c2)CNC1=O [a-D1-B5/8] ([Mpa][dA]K(Isovaleryl)[3Amb]-Cysteamide; disulfide 1-C)
9 | 109.062% | COc1ccc(C(=O)NCCCC[C@@H]2NC(=O)[C@@H](C)NC(=O)CCSSCCNC(=O)c3cccc(c3)CNC2=O)cn1 [a-D1-B5/10]
10 | 105.866% | C[C@H]1NC(=O)CCSSCCNC(=O)c2cccc(c2)CNC(=O)[C@H](CCCCNC(=O)COc2ccccc2)NC1=O [a-D1-B5/13]
11 | 102.51% | C[C@H]1NC(=O)CCSSCCNC(=O)c2cccc(c2)CNC(=O)[C@H](CCCCNC(=O)c2ccc(Cl)s2)NC1=O [a-D1-B5/14]
12 | 108.99% | C[C@H]1NC(=O)CCSSCCNC(=O)c2cccc(c2)CNC(=O)[C@H](CCCCN)NC1=O [a-D1-B5/-] ([Mpa][dA]K[3Amb]-Cysteamide; disulfide 1-C)
13 | 113.66% | O=C1CCNC(=O)[C@@H](CO)NC(=O)CCSSCCNC(=O)[C@H](CCCCNC(=O)c2cnccn2)N1 [s-B2-D1/2]
14 | 111.495% | Cc1cc(C(=O)NCCCC[C@@H]2NC(=O)CCNC(=O)[C@@H](CO)NC(=O)CCSSCCNC2=O)no1 [s-B2-D1/3]
15 | 109.681% | O=C1CCNC(=O)[C@@H](CO)NC(=O)CCSSCCNC(=O)[C@H](CCCCNC(=O)c2c[nH]c(=O)cn2)N1 [s-B2-D1/9]
16 | 113.521% | O=C1CCNC(=O)[C@@H](CO)NC(=O)CCSSCCNC(=O)[C@H](CCCCNC(=O)c2c[nH]c(=O)[nH]c2=O)N1 [s-B2-D1/11]
17 | 112.63% | O=C(COc1ccccc1)NCCCC[C@@H]1NC(=O)CCNC(=O)[C@@H](CO)NC(=O)CCSSCCNC1=O [s-B2-D1/13]
18 | 112.001% | O=C1CCNC(=O)[C@@H](CO)NC(=O)CCSSCCNC(=O)[C@H](CCCCNC(=O)c2ccco2)N1 [s-B2-D1/16]
19 | 109.656% | COc1ccc(C(=O)NCCCC[C@@H]2NC(=O)[C@H]3CCCN(C3)C(=O)[C@@H](CO)NC(=O)CCSSCCNC2=O)cn1 [s-B4-D1/10]
20 | 112.975% | O=C1CCSSCCNC(=O)[C@H](CCCCNC(=O)c2c[nH]c(=O)[nH]c2=O)NC(=O)[C@H]2CCCN(C2)C(=O)[C@@H](CO)N1 [s-B4-D1/11]
21 | 112.216% | O=C(COc1ccccc1)NCCCC[C@@H]1NC(=O)[C@H]2CCCN(C2)C(=O)[C@@H](CO)NC(=O)CCSSCCNC1=O [s-B4-D1/13]
22 | 99.656% | CC(C)[C@@H]1NC(=O)CCSSCCNC(=O)[C@@H]2CCCN2C(=O)[C@H](CCCCNC(=O)c2c[nH]c(=O)cn2)NC1=O [v-D1-B1/9] ([Mpa]VK(Pyrazinoyl(5-oxo-4H))P-Cysteamide; disulfide 1-C)
23 | 104.488% | COc1ccc(C(=O)NCCCC[C@@H]2NC(=O)[C@H](C(C)C)NC(=O)CCSSCCNC(=O)[C@@H]3CCCN3C2=O)cn1 [v-D1-B1/10] ([Mpa]VK(Nicotinoyl(6-OMe))P-Cysteamide; disulfide 1-C)
24 | 99.643% | CC(C)[C@@H]1NC(=O)CCSSCCNC(=O)[C@@H]2CCCN2C(=O)[C@H](CCCCNC(=O)Cc2c[nH]c3ccccc23)NC1=O [v-D1-B1/12] ([Mpa]VK(X3)P-Cysteamide; disulfide 1-C)
25 | 104.766% | CC(C)[C@@H]1NC(=O)CCSSCCNC(=O)[C@@H]2CCCN2C(=O)[C@H](CCCCNC(=O)COc2ccccc2)NC1=O [v-D1-B1/13] ([Mpa]VK(Phenoxyacetyl)P-Cysteamide; disulfide 1-C)
26 | 97.5215% | CC(C)[C@@H]1NC(=O)CCSSCCNC(=O)[C@@H]2CCCN2C(=O)[C@H](CCCCNC(=O)c2ccc(Cl)s2)NC1=O [v-D1-B1/14] ([Mpa]VK(2Thenoyl(5-Cl))P-Cysteamide; disulfide 1-C)
27 | 105.611% | Cc1nnsc1C(=O)NCCCC[C@@H]1NC(=O)[C@H](C(C)C)NC(=O)CCSSCCNC(=O)[C@@H]2CCCN2C1=O [v-D1-B1/15] ([Mpa]VK(1,2,3Thiadiazole5CO(4-Me))P-Cysteamide; disulfide 1-C)
28 | 102.421% | CC(C)[C@@H]1NC(=O)CCSSCCNC(=O)[C@@H]2CCCN2C(=O)[C@H](CCCCNC(=O)c2ccco2)NC1=O [v-D1-B1/16] ([Mpa]VK(2Furoyl)P-Cysteamide; disulfide 1-C)
29 | 104.378% | O=C(Cc1c[nH]c2ccccc12)NCCCC[C@@H]1NC(=O)[C@@H](Cc2ccc(O)cc2)NC(=O)CCSSCCNC(=O)[C@@H]2CCCN2C1=O [y-D1-B1/12] ([Mpa][dY]K(X3)P-Cysteamide; disulfide 1-C)
30 | 104.272% | O=C1CCSSCCNC(=O)[C@@H]2CCCN2C(=O)[C@H](CCCCNC(=O)c2ccco2)NC(=O)[C@@H](Cc2ccc(O)cc2)N1 [y-D1-B1/16] ([Mpa][dY]K(2Furoyl)P-Cysteamide; disulfide 1-C)

What follows are molecules tested against MDM2 (Homo sapiens, UniProt Q00987) (assay: MDM2 binding screen of Libraries 3 and 4: displacement of fluorescent probe F-M8 at 750 nM macrocycle). Settings: Panel b, Library 3: 63 scaffolds combinatorially acylated with 15 carboxylic acids at 30 picomole scale; displacement of fluorescent peptide probe; macrocycle 750 nM.
Sequence of MDM2 (Q00987 whole entry): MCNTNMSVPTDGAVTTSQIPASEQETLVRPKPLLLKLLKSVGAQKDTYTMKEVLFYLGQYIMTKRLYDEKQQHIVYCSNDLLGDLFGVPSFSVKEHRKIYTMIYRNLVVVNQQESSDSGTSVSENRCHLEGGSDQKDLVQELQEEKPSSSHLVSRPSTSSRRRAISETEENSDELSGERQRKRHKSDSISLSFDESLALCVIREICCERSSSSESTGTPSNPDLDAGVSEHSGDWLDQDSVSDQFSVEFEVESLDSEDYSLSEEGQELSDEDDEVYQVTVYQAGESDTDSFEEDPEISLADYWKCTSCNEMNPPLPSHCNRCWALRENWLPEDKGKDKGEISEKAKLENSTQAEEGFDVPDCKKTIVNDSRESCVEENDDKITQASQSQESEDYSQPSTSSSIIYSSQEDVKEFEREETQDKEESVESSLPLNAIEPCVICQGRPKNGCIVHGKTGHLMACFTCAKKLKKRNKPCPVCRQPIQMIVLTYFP
Experimental: The cyclic peptide scaffolds required for Libraries 3 and 4 were synthesized as described for those used in Library 2. Due to the presence of many N-methylated amino acids which are more difficult to couple, 200 mM HOAt was applied together with HATU. The scaffolds were diluted to 2 mM in DMSO, and 15 nL were transferred using acoustic dispensing, followed by 15 nL DMSO containing carboxylic acids (40 mM, 20 equiv.), HBTU (40 mM) and DABCO (40 mM). After 6 h reaction at room temperature, 370 nL of DMSO was added to each well, followed by 5 μL of 100 mM Tris-Cl pH 7.4 containing 0.01% v/v Tween20, for quenching overnight.

Row | fraction of fluorescent probe displaced | SMILES
31 | -0.034 | O=C1CCSSCCNC(=O)C(Cc2cccc3ccccc23)NC(=O)C(CNC(=O)C2CC2c2ccccc2)NC(=O)C2(CC2)CN1 (mixture of isomers) [X-Amcp-D-Dap-1-NaI + Acid 105]
32 | -0.00533 | CC(Oc1cccc(Cl)c1)C(=O)NCC1NC(=O)C2(CC2)CNC(=O)CCSSCCNC(=O)C(Cc2ccc3ccccc3c2)NC1=O (mixture of isomers) [X-Amcp-D-Dap-2-Nal + Acid 113]
33 | -0.041 | O=C1CCSSCCNC(=O)C(Cc2c[nH]c3ccccc23)NC(=O)C(CNC(=O)C2CC2c2ccccc2)NC(=O)C2(CC2)CN1 (mixture of isomers) [X-Amcp-D-Dap-D-Trp + Acid 105]
34 | 0.015 | CN1C(=O)C(CNC(=O)C2COc3ccccc3O2)NC(=O)C2(CC2)CNC(=O)CCSSCCNC(=O)C1Cc1c[nH]c2ccccc12 (mixture of isomers) [X-Amcp-D-Dap-NMe-Trp + Acid 115]
35 | -0.019 | CC(Oc1cccc(Cl)c1)C(=O)NCC1NC(=O)C2(CC2)CNC(=O)CCSSCCNC(=O)C(Cc2c[nH]c3cc(Cl)ccc23)NC1=O (mixture of isomers) [X-Amcp-Dap-Cl-Trp + Acid 113]
36 | -0.012 | CC(Oc1cccc(Cl)c1)C(=O)NCC1NC(=O)C2(CC2)CNC(=O)CCSSCCNC(=O)C(Cc2c[nH]c3ccccc23)NC1=O (mixture of isomers) [X-Amcp-Dap-D-Trp + Acid 113]
37 | 0.008 | CC(Oc1cccc(Cl)c1)C(=O)NCC1NC(=O)C2(CC2)CNC(=O)CCSSCCNC(=O)C(Cc2cn(C)c3ccccc23)NC1=O (mixture of isomers) [X-Amcp-Dap-Me-Trp + Acid 113]
38 | 0.00133 | CC(Oc1cccc(Cl)c1)C(=O)NCC1NC(=O)C2(CC2)CNC(=O)CCSSCCNC(=O)C(Cc2c[nH]c3ccccc23)NC1=O (mixture of isomers) [X-Amcp-Dap-Trp + Acid 113]
39 | 0.00133 | O=C1CCSSCCNC(=O)C(Cc2c[nH]c3ccccc23)NC(=O)C(CNC(=O)C2COc3ccccc3O2)NC(=O)C2(CC2)CN1 (mixture of isomers) [X-Amcp-Dap-Trp + Acid 115]
40 | -0.00533 | O=C1CCSSCCNC(=O)C(Cc2cccc3ccccc23)NC(=O)CN(CCNC(=O)C2COc3ccccc3O2)C(=O)C2(CC2)CN1 (mixture of isomers) [X-Amcp-N-Aeg-1-NaI + Acid 115]
41 | 0.015 | O=C1CCSSCCNC(=O)C(Cc2ccc3ccccc3c2)NC(=O)CN(CCNC(=O)C2COc3ccccc3O2)C(=O)C2(CC2)CN1 (mixture of isomers) [X-Amcp-N-Aeg-2-Nal + Acid 115]
